According to paper PMC7926980, “The Antiproliferative and Apoptotic Effect of a Novel Synthesized S-Triazine Dipeptide Series, and Toxicity Screening in Zebrafish Embryos” (Molecules, 2021):
Entries after “also recorded” stand apart in the source; their conditions may differ.

Assays:
HEK-293 cells = test: MTT cell viability assay, non-tumorigenic HEK-293; format: cell-based; conditions: Homo sapiens, HEK293, 72 h, non-tumorigenic cell line
Description: Additional assays were run with 3a, the most promising compound. Its toxicity was evaluated using HEK-293 (normal human embryonic kidney), which is a non-tumorigenic cell line.
In order to calculate the relative IC50 values, the antiproliferative effect of compounds 3a–o was tested in three cancer cell lines (MCF-7, MDA-MB-231, HCT-116) and normal epithelial embryonic kidney cells (HEK-293) using the MTT viability assay. The cells were seeded in 96-well plates at a density of 10 × 10^3 cells/mL, in a total volume of 200 µL per well. In total, 0.1% DMSO was used as a vehicle control. After 24 h, the cells were treated with 2 µL of the test compound, which had been pre-prepared as a stock solution to furnish the concentration range of the study (0.01–100 µM), and re-incubated for 72 h. The culture medium was then removed, and the cells were washed with phosphate-buffered saline (PBS), and 100 µL MTT was added (for a final concentration of 5 mg/mL MTT). The cells were incubated for 4 h in darkness at 37 °C. Next, 200 µL DMSO was added to each well, and the cells were maintained at room temperature in darkness for 20 min. The absorbance was detected with a microplate reader at 570 nm. The results were expressed as a percentage of viability relative to the vehicle control (100%). […]

zebrafish embryos = test: Zebrafish embryo mortality/toxicity; format: in vivo; conditions: maximum concentration tested 1 mM, versus DMSO control
Description: (§1) The zebrafish embryos were obtained by natural pairwise breeding, and were treated essentially as described previously.
(§2) The compounds were dissolved in dimethylsulfoxide (DMSO) in order to prepare a stock concentration of 10 mM. The embryos treated with 0.10% DMSO (v/v) served as the negative controls.
(§3) The fish were kept following the national and international guidelines for the care and use of laboratory animals. The fertilized eggs were obtained by the natural pairwise breeding of adult fish. The approval of the Ethics Committee for the use and care of laboratory animals was not needed, as zebrafish larvae less than 5 days post fertilization were used.
(§4) A stock solution of 50 mM was prepared by dissolving the compounds in dimethyl sulfoxide (DMSO). At least 30 fertilized eggs were sorted and placed in 60-mm sterile glass Petri dishes. A serial dilution of the compounds was prepared by adding the required amount of the compound directly into 5 mL water, and the zebrafish embryos were then exposed to serial dilutions (0.5 to 1000 µM) of each compound overnight. The number of dead and living embryos were counted after the overnight exposure.

[1] = Zebrafish embryo mortality/toxicity; format: in vivo; conditions: wild-type, in vivo; zebrafish embryos, overnight exposure, 0.5 to 1000 µM; mean of three biological replicates ± standard deviation
Description: as §1, §2, §3, §4

MCF-7 cells [2] = test: Cell cycle analysis by PI staining flow cytometry; format: cell-based, human; conditions: 2 µM, 48 h
Description: The mechanism underlying the growth-inhibitory effect of 3a was further examined. The effect of 3a on cell cycle events in MCF-7 cells, after incubation at 2 µM for 48 h, was analyzed by a DNA flow cytometry assay of propidium iodide (PI) staining (Figure 4A). Compound 3a induced a statistically significant arrest of MCF-7 cells in the G2/M stage (36.8%) compared to the untreated cell line (11.5%) (Figure 4B).
The MCF-7 cells were treated with compound 3a (2 µM) and incubated for 48 h. After trypsinization, the cells were collected and centrifuged at 800× g for 15 min. They were then fixed in ice-cold 70% ethanol overnight at −20 °C. The fixed cells were centrifuged at 800× g for 15 min and stained with 50 μg/mL PI, containing 50 μg/mL DNase-free RNase A, at 37 °C for 30 min. The DNA content of the cells (10,000 cells) was analyzed by flow cytometer at 488 nm, using a FACSCalibur flow cytometer (BD Biosciences, San Jose, CA, USA).
Figure 4 (A) Effect of compound 3a on the cell cycle and apoptosis in breast cancer MCF-7 cells. The cells were treated with either a vehicle (0.1% ethanol (v/v)) or 3a (2 µM) for 48 h. The cell cycle analysis was performed on histograms of gated counts per DNA area (FL2-A). (B) Quantitative analysis of 4N (G2/M), 2N (G0G1), >2N (S) and <2N (sub-G1). The DNA content was determined with CellQuest software. […]

MCF-7 cells [3] = test: Annexin V-FITC/PI apoptotic assay by flow cytometry; format: cell-based, human; conditions: 2 µM, 48 h; control 8.3%
Description: In order to determine the capacity of compound 3a to induce apoptosis, an Annexin V-FITC/PI dual staining assay was performed on the MCF-7 cells by flow cytometry.
Flow cytometry using Annexin V and propidium iodide (PI) was performed in order to detect apoptotic cell death. MCF-7 cells were seeded at a density of 1 × 10^5 cells/well, treated with the vehicle (0.1% (v/v) EtOH) or compound 3a (2 µM), and incubated for 48 h. The cells were then harvested and washed twice in 1X binding buffer, and incubated in the dark for 30 min on ice in Annexin V-containing binding buffer [1:100]. They were then re-suspended in PI-containing binding buffer [1:1000]. The samples were analyzed immediately using a BD Accuri flow cytometer, and GraphPad Prism software version 5.01 was used to analyze the data. Four populations were identified during the assay: Annexin V-negative and PI-negative (Q4, healthy cells), Annexin V-positive and PI-negative (Q3, early apoptosis), Annexin V-positive and PI-positive (Q2, late apoptosis), and Annexin V-negative and PI-positive (Q1, necrosis).
Figure 5 Compound 3a potently induces apoptosis in breast cancer MCF-7 cells (Annexin V/PI Fluorescence-activated cell sorting (FACS)). (A) Flow cytometry analysis of the effect of compound 3a on MCF-7 cells. […] (B) The quantitative analysis of the apoptosis. […]

COC(=O)CNC(=O)CNc1nc(Nc2ccccc2)nc(N2CCOCC2)n1 [Compound 3a, Methyl (4-morpholino-6-(phenylamino)-1,3,5-triazin-2-yl) glycylglycinate]
IC50 (HEK-293 cells): > 50 µM | toxicity / mortality in zebrafish embryos (zebrafish embryos): did not show any toxicity; also recorded: same mortality ratio as the control | LC50 [1]: > 1000 µM | cells in the sub-G1 phase (MCF-7 cells [2]; control 3.7%): 17.3% | MCF-7 cells in the G2/M stage (MCF-7 cells [2]; untreated 11.5%): 36.8% | Annexin V-positive cells (total apoptotic cells) (MCF-7 cells [3]): 37.4%
